Source: paper PMC7335359, “Design and Synthesis of Dihydroxamic Acids as HDAC6/8/10 Inhibitors” (Chemmedchem, 2020)

Key:
Assay type in all cases: cell-based
[1] = test system: lysosomal staining with LysoTracker DND‐99 (HDAC10 knockdown phenotype); assay: LysoTracker assay in SK-N-BE(2)C cells; conditions: 10 μM inhibitor, normalized to DMSO
Procedure: LysoTracker assay: SK‐N‐BE(2)‐C cells were seeded into 6‐well dishes at a density of 1.5×10^5 cells per well. Cells were treated with inhibitor over night at concentrations indicated in the figure and stained the following day for 1 h with 50 nM LysoTracker® Red DND‐99 in medium under standard cell culture conditions. Cells were washed with ice‐cold RPMI without phenol‐red and trypsinized for 3 min at 37 °C. Detached cells were centrifuged for 3 min at 8600 g and re‐suspended in ice‐cold RPMI without phenol red. Mean LysoTracker fluorescence was quantified on a BD FACSCanto II platform using the PE filter setting. Data were normalized to mean LysoTracker fluorescence of solvent (DMSO) treated cells.

HDAC10 = biological target: T1, HDAC10 (Homo sapiens, UniProt Q969S8); assay: cellular BRET HDAC10 target engagement assay (stably transfected HeLa cells); set-up: host or cells: HeLa (stably transfected mono-clones); conditions: for IC50: read-out: HDAC10 BRET pIC50 (converted)
T1 sequence (Q969S8 1-669): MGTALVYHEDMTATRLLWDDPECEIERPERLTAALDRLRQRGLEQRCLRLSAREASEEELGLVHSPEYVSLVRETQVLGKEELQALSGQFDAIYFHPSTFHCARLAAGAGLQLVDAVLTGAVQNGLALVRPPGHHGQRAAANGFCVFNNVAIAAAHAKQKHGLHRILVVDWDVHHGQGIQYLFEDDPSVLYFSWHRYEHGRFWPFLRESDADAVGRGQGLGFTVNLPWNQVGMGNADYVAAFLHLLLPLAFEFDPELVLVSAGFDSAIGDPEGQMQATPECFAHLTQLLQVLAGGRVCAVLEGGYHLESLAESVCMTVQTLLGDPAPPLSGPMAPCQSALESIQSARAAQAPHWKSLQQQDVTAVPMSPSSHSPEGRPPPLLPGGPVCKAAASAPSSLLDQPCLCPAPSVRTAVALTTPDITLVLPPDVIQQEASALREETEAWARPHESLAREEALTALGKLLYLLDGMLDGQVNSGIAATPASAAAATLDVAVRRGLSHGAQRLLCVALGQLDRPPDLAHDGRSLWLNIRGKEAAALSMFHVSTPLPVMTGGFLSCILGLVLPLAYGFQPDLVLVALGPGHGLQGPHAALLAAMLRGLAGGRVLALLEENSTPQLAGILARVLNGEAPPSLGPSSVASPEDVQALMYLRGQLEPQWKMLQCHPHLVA
Procedure: Production of mono‐clones stably expressing HDAC‐nanoBRET proteins: Plasmids expressing a fusion of HDAC10 with nanoluciferase were obtained from Promega (N2170). HeLa cells (0.75×10^6) were seeded in a 6 cm dish and after 24 h were transfected with a mix of 10 μg plasmid and 3 μL Fugene in 200 μL OptiMEM. In detail, cells were washed with pre‐warmed OptiMEM and subsequently overlaid with 2.3 mL of OptiMEM. After addition of 200 μL transfection mix, cells were incubated for 24 h at 37 °C. Cells were than trypsinized and 0.2×10^5 cells were seeded into both 10 cm and 15 cm dishes. Transformants were selected with 1 mg/mL G‐418 for 6 days with a media change after 3 days. Clones which formed colonies were picked by rinsing plates with 3 mL Trypsin/EDTA (Sigma T3924) followed by a 2 min incubation with 300 μL Trypsin/EDTA at 37 °C. Colonies were then loosened and aspirated with a 10 μL filter tip and transferred to 24‐well plates containing selection medium.
Culture of stable BRET cell lines: Stably transfected HeLa cells were cultivated under sterile conditions in polystyrene cell culture flasks (658170, Greiner) at 37 °C and 5 % CO2 in a humidified atmosphere. DMEM growth medium (D6049, Sigma) was supplemented with 10 % FCS (FBS‐12A, Capricorn Scientific), 1 % penicillin‐streptomycin (P4333, Sigma) and 1 mg/mL Geneticin (2039.3, Roth). At confluency, cells were passaged by removing old medium, DPBS (14190‐094, gibco) wash, trypsination (T4049, Sigma) and seeding in fresh growth medium.
BRET assay: The intracellular target engagement assay on HDAC10 was performed as described by the kit manufacturer in a 96‐well plate (3600, Corning) format with 1.9×10^4 cells per well and a tracer concentration of 0.3 μM. […] Drug dosing was performed from 10 mM and 1 mM DMSO stock solutions with a D300e Digital Dispenser (Tecan), DMSO concentrations were normalized to 0.5 % for all wells. Assay plates were incubated at 37 °C for 2 h followed by measurement of 450 nm and 650 nm luminescence (80 nm bandwidth) at room temperature with a CLARIOstar (BMG Labtech) plate reader 2 min after NanoLuc substrate addition.

[2] = test system: acetylation of the HDAC8 substrate SMC3; assay: Western blot of SMC3 acetylation in SK-N-BE(2)C cells; conditions: relative to solvent control
Procedure: Western blot analysis of SMC3, tubulin and histone H3 acetylation: For the analysis of protein acetylation, 1.5–2×10^6 SK‐N‐BE(2)‐C cells were seeded per 10 cm dish and allowed to adhere overnight. Cells were treated for 18 h (Figure 4B) or 6 h (Figure 4E) with inhibitors at concentrations indicated in the respective figure. […] Cell debris was removed by centrifugation (15 000 g for 10 min at 12 °C).

[3] = test system: acetylation of tubulin (HDAC6 substrate); assay: Western blot of tubulin acetylation in SK-N-BE(2)C cells
Procedure: (§1) Western blot analysis of SMC3, tubulin and histone H3 acetylation: For the analysis of protein acetylation, 1.5–2×10^6 SK‐N‐BE(2)‐C cells were seeded per 10 cm dish and allowed to adhere overnight. Cells were treated for 18 h (Figure 4B) or 6 h (Figure 4E) with inhibitors at concentrations indicated in the respective figure. Cells were lysed in SDS lysis buffer (2 % w/v SDS, 10 % v/v glycerol, 1 mM DTT, 62.5 mM TRIS, pH 6.8) and proteins were denatured at 95 °C for 10 min. Cell debris was removed by centrifugation (15 000 g for 10 min at 12 °C). Western blot analysis was performed as described before.7a The following antibodies were used: anti‐acetylated tubulin (6‐11B‐1; Sigma) anti‐acetylated SMC3 (kindly provided by Katsuhiko Shirahige, Institute for Molecular and Cellular Biosciences, University of Tokyo, Japan),35 anti acetylated histone H3 (#06‐911, Millipore), anti histone H3 (#9715, Cell Signaling Technology) and anti β‐actin (#5441, Sigma‐Aldrich).

[4] = test system: acetylation of histone H3 (HDAC1 substrate); assay: Western blot of histone H3 acetylation in SK-N-BE(2)C cells
Procedure: as §1

[5] = cellular target engagement, one experiment in triplicate

HDAC10 BRET pIC50 (HDAC10; [5]) | loss of potency between the FRET and BRET HDAC10 assays (HDAC10; BRET weaker than FRET) [fold] | IC50 (HDAC10; [5]) [nM] | Compound | lysosomal staining with LysoTracker DND-99 (HDAC10 knockdown phenotype) [1] | acetylation of SMC3 (HDAC8 substrate), Western blot [2] | acetylation of tubulin (HDAC6 substrate), Western blot [3] | acetylation of histone H3 (HDAC1 substrate), Western blot [4]
7.80 | – | – | CN(C)Cc1nn(Cc2ccc(C(=O)NO)cc2)c2ccccc12 [Compound 1g] | effective | – | – | –
– | ~5 | 15.1 | O=C(NO)c1ccc(Cc2c[nH]c3ccc(C(=O)NO)cc23)cc1 [Compound 3d] | induces lysosomal acidification similar to Tubastatin A | increases acetylation | increases acetylation | significantly weaker effects
– | – | – | CN(C)CCn1cc(Cc2ccc(C(=O)NO)cc2)c2cc(C(=O)NO)ccc21 [Compound 3e] | failed to produce an HDAC10 knockdown phenotype | – | – | –
– | – | 158 | CN(C)Cc1nn(Cc2ccc(C(=O)NO)cc2)c2cc(C(=O)NO)ccc12 [Compound 3g] | failed to produce an HDAC10 knockdown phenotype | no effect | – | –
